Consider 15 compounds from patent US8530478B2, “Piperazine derivatives used as CAV2.2 calcium channel modulators” (Convergence Pharmaceuticals Limited, priority 2008, dated 2013).

The target of the assay is T1, hCav2.2 (Homo sapiens, UniProt Q00975).
T1 construct: expressed in transfected cells; plasmids pCIN5-hCav2.2, pCIH-hCav β3, pCIP-α2δ1
In words: hCav2.2 assay (IonWorks planar array electrophysiology, HEK293 stable cell line). Particulars: inhibition of current elicited by the 1st depolarising pulse; HEK293 cells expressing human Cav2.2 α/β3/α2δ1; tested in the form described in the Examples; read-out: mean pIC50 (tonic pIC50) (converted). Type of assay: cell-based. The method, then: Compounds of the invention may be tested for in vitro biological activity in the hCav2.2 assay in accordance with the following studies:
Stable cell lines expressing the human Cav2.2 α (α1B) subunit, along with the human β3 and α2δ1 auxiliary subunits were created following sequential transfection and selection of human embryonic kidney (HEK293) cells. HEK293 cells were cultured in Dulbecco's modified Eagles media/F12 media (Invitrogen, Cat # 041-95750V) containing 10% foetal bovine serum, with added L-glutamine (2 mM; Invitrogen, Cat # 25030-024) and non-essential amino acids (5%; Invitrogen, Cat # 11140-035). Initially HEK293 cells were transfected with two plasmid vectors for expression of the hCav2.2 α subunit (pCIN5-hCav2.2 which carries a neomycin resistance marker) and the hCav β3 subunit (pCIH-hCav β3 which carries a hygromycin resistance marker). Clonal cell lines were isolated following selection in media supplemented with 0.4 mg ml^−1 Geneticin G418 (Invitrogen, Cat # 10131-027) and 0.1 mg ml^−1 hygromycin (Invitrogen, Cat # 10687-010). These clonal cell lines were assessed for Cav2.2 α/β3-mediated current expression using the IonWorks planar array electrophysiology technology (described below). A clonal line was identified that gave a reasonable level of functional Cav2.2 α/β3 current expression. This cell line was transfected with a plasmid vector for expression of the human α2δ1 subunit (pCIP-α2δ1 which carries a puromycin resistance marker) and clonal cell lines isolated following selection in media containing 0.62 μg ml^−1 puromycin (Sigma, Cat # P-7255), in addition to 0.4 mg ml^−1 Geneticin G418 and 0.1 mg ml^−1 hygromycin. Several cell lines were identified that gave robust levels of Cav2.2 α/β3/α2δ1-mediated current expression and one of these was selected for compound profiling. Expression of all three subunits within this cell line was continuously maintained by the inclusion of G418 (0.4 mg ml^−1), hygromycin (0.1 mg ml^−1) and puromycin (0.62 μg ml^−1). Cells were maintained at 37° C. in a humidified environment containing 5% CO2 in air. Cells were liberated from the T175 culture flasks for passage and harvesting using TrpLE (Invitrogen, Cat # 12604-013).
Cells were grown to 30-60% confluence in T175 flasks and maintained at 30° C. for 24 hrs prior to recording. Cells were lifted by removing the growth media, washing with Ca^2+ free PBS (Invitrogen, Cat #14190-094) and incubating with 3 ml of warmed (37° C.) TrpLE (Invitrogen, Cat # 12604-013) for 6 minutes. Lifted cells were suspended in 10 ml of extracellular buffer. Cell suspension was then placed into a 15 ml tube and centrifuged for 2 minutes at 700 rpm. After centrifugation, the supernatant was removed and the cell pellet was resuspended in 4.5 ml of extracellular solution.
Currents were recorded at room temperature (21-23° C.) using the IonWorks planar array electrophysiology technology (Molecular Devices Corp.). Stimulation protocols and data acquisition were carried out using a microcomputer (Dell Pentium 4). In order to determine planar electrode hole resistances (Rp), a 10 mV, 160 ms potential difference was applied across each hole. These measurements were performed before cell addition. After cell addition a seal test was performed prior to antibiotic (amphotericin) circulation to achieve intracellular access. Leak subtraction was conducted in all experiments by applying a 160 ms hyperpolarizing (10 mV) prepulse 200 ms before the test pulses to measure leak conductance. Test pulses stepping from the holding potential (VH) of −90 mV to +10 mV were applied for 20 ms and repeated 10 times at a frequency of 10 Hz. In all experiments, the test pulse protocol was performed in the absence (pre-read) and presence (post-read) of a compound. Pre- and post-reads were separated by a compound addition followed by a 3-3.5 min incubation. […]

Structures can show the parent of a compound that is named as a salt. Some results are limits rather than exact numbers.

T1 sequence (Q00975 whole entry): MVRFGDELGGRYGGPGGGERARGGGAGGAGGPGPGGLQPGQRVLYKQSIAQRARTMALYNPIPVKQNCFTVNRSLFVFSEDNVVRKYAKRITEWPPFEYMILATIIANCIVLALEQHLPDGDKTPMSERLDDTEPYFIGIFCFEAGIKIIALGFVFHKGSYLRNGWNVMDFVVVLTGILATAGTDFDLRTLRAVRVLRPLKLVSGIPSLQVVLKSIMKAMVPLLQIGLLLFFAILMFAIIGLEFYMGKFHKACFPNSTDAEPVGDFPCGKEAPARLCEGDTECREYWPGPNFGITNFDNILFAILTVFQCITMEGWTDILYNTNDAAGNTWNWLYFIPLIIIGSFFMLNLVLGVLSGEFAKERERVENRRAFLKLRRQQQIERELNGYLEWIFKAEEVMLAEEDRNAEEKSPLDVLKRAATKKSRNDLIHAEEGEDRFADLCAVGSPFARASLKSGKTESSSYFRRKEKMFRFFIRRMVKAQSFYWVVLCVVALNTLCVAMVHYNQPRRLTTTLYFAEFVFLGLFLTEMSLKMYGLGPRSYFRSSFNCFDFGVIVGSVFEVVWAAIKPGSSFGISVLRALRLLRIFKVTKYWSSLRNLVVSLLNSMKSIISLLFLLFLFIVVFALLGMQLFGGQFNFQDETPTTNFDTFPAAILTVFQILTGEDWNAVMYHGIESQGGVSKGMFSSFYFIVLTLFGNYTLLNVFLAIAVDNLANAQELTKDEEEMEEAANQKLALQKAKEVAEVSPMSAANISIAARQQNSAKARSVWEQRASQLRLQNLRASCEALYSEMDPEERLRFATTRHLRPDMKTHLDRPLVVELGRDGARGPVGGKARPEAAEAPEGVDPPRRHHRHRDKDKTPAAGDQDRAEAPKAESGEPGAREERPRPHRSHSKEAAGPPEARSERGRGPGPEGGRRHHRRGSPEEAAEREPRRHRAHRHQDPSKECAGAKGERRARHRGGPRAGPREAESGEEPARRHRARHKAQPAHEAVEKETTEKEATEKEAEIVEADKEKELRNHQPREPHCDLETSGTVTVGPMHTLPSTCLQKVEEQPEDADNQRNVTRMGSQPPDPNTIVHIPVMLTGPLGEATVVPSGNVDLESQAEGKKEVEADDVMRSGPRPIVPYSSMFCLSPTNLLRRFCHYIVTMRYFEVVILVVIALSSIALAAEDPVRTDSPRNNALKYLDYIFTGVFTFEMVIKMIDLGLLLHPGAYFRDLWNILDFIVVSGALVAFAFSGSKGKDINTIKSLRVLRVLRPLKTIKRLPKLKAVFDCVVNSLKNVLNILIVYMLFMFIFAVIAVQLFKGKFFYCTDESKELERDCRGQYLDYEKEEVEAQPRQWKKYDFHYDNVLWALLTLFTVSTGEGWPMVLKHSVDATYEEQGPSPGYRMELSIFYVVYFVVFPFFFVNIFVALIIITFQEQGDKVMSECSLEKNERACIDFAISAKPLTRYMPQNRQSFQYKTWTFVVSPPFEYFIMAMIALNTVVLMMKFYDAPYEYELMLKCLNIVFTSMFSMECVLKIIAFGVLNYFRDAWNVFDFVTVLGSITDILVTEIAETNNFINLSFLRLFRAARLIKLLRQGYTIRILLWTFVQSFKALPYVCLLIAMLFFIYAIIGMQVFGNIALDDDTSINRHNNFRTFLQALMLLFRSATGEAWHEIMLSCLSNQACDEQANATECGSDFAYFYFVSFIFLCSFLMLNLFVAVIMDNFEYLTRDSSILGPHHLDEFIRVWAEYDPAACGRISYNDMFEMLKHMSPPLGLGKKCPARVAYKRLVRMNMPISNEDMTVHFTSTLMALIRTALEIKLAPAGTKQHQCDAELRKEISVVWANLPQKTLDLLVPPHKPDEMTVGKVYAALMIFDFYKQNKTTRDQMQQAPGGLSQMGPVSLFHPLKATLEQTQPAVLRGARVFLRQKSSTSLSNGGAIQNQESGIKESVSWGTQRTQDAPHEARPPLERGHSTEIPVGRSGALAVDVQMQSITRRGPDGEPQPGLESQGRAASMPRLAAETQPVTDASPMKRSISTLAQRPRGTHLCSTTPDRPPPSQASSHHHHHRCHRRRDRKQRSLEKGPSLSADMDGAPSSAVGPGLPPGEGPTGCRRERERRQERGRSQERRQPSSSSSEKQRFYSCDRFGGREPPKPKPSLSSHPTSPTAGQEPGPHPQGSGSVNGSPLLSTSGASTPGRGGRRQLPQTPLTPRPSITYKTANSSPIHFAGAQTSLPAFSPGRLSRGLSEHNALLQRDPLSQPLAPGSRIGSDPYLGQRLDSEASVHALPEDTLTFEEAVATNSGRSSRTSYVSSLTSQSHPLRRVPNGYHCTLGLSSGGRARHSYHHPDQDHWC
T1 sequence (P54284 whole entry partner): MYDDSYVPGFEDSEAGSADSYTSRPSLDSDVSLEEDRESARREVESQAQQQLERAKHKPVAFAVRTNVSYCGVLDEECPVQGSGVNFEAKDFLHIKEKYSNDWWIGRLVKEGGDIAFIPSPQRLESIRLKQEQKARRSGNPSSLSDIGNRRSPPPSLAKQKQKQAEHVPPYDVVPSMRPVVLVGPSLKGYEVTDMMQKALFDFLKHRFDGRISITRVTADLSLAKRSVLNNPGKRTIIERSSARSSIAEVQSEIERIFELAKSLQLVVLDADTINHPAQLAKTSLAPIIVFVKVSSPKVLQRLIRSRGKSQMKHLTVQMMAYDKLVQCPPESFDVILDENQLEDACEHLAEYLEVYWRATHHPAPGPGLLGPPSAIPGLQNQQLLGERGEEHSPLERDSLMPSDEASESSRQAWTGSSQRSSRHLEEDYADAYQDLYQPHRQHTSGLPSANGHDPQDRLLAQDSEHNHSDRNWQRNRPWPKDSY
T1 sequence (P54289 25-956 partner): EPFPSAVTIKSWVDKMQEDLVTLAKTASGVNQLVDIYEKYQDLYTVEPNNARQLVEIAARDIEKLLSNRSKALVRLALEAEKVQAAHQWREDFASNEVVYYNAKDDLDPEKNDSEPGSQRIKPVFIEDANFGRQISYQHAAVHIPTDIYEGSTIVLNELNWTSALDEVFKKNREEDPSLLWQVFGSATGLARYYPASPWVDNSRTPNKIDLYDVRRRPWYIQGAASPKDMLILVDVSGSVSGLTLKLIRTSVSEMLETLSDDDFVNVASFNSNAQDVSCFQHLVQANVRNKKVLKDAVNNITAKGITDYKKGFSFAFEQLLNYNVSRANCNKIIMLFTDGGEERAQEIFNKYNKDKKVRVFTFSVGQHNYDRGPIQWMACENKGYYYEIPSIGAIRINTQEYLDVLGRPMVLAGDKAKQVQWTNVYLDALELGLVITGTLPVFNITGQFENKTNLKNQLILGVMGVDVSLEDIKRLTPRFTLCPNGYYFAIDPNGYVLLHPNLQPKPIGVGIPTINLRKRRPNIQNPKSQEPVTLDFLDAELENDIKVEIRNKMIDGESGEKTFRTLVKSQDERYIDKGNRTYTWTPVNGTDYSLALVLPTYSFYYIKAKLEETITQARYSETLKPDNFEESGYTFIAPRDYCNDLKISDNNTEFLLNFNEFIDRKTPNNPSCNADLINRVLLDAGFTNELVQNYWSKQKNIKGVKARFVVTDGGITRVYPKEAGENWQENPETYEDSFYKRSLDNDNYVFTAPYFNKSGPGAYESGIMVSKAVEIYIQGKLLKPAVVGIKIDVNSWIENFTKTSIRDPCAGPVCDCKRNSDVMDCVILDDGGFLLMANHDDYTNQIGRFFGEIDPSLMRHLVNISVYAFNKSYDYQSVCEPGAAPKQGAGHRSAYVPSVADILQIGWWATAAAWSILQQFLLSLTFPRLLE
T1 sequence (P54289 957-1103 partner): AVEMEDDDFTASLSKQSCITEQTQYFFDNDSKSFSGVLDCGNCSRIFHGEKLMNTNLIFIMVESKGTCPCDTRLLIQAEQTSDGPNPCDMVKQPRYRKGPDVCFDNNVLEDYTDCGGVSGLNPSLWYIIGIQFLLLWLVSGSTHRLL

On to `C[C@@H]1CN(S(=O)(=O)c2ccc(Cl)cc2)CCN1C(=O)c1ccccn1` [Example 11, (2R)-4-[(4-chlorophenyl)sulfonyl]-2-methyl-1-(2-pyridinylcarbonyl)piperazine], for which the IC50 is no less than 31.6 µM.
The same measure for `Cc1cc(C(=O)N2CCN(S(=O)(=O)c3ccc(C(F)(F)F)cc3)C[C@@H]2C)ccn1` [Example 10, (2S)-2-methyl-1-[(2-methyl-4-pyridinyl)carbonyl]-4-{[4-(trifluoromethyl)phenyl]sulfonyl}piperazine formic acid salt (1:1)]: no less than 31.6 µM; for `C[C@H]1CN(S(=O)(=O)c2ccc(C(F)(F)F)cc2)CCN1C(=O)c1ccccn1` [Example 4, (2S)-2-methyl-1-(2-pyridinylcarbonyl)-4-{[4-(trifluoromethyl)phenyl]sulfonyl}piperazine formic acid salt (1:1)]: no less than 31.6 µM.
As for `Cc1cccnc1C(=O)N1CCN(S(=O)(=O)c2ccc(C(F)(F)F)cc2)[C@H](C)C1` [Example 13, (2R)-2-methyl-4-[(3-methyl-2-pyridinyl)carbonyl]-1-{[4-(trifluoromethyl)phenyl]sulfonyl}piperazine], the IC50 is no less than 31.6 µM.
Consider `Cc1cccc(C(=O)N2CCN(S(=O)(=O)c3ccc(C(F)(F)F)cc3)CC2)n1` [Example 2, 1-[(6-Methyl-2-pyridinyl)carbonyl]-4-{[4-(trifluoromethyl)phenyl]sulfonyl}piperazine], for which the IC50 was no less than 31.6 µM.
On to `Cc1cccnc1C(=O)N1CCN(S(=O)(=O)c2ccc(C(F)(F)F)cc2)[C@@H](C)C1` [Example 14, (2S)-2-methyl-4-[(3-methyl-2-pyridinyl)carbonyl]-1-{[4-(trifluoromethyl)phenyl]sulfonyl}piperazine], for which the IC50 is no less than 31.6 µM.
Take `Cc1cc(C(=O)N2CCN(S(=O)(=O)c3ccc(C#N)cc3)C[C@@H]2C)ccn1` [Example 15, 4-({(3S)-3-methyl-4-[(2-methyl-4-pyridinyl)carbonyl]-1-piperazinyl}sulfonyl)benzonitrile]: the IC50 was no less than 31.6 µM.
On to `C[C@H]1CN(S(=O)(=O)c2ccc(C#N)cc2)CCN1C(=O)c1ccccn1` [Example 12, 4-{[(3S)-3-methyl-4-(2-pyridinylcarbonyl)-1-piperazinyl]sulfonyl}benzonitrile], for which the IC50 is no less than 31.6 µM.
Consider `C[C@H]1CN(C(=O)c2ccccn2)CCN1S(=O)(=O)c1ccc(Cl)cc1` [Example 6, (2S)-1-[(4-Chlorophenyl)sulfonyl]-2-methyl-4-(2-pyridinylcarbonyl)piperazine hydrochloride], for which the IC50 was no less than 31.6 µM.
Take `O=C(c1ccc(-c2ccccn2)cn1)N1CCN(S(=O)(=O)c2ccc(C(F)(F)F)cc2)CC1` [Example 7, 6′[(4-{[4-(Trifluoromethyl)phenyl]sulfonyl}-1-piperazinyl)carbonyl]-2,3′-bipyridine]: the IC50 was no less than 31.6 µM.
Turning to `Cc1cc(C(=O)N2CCN(S(=O)(=O)c3ccc(C(F)(F)F)cc3)CC2)ccn1` [Example 9, 1-[(2-Methyl-4-pyridinyl)carbonyl]-4-{[4-(trifluoromethyl)phenyl]sulfonyl}piperazine], the IC50 was no less than 31.6 µM.
Turning to `O=C(c1ccncc1)N1CCN(S(=O)(=O)c2ccc(C(F)(F)F)cc2)CC1` [Example 8, 1-(4-Pyridinylcarbonyl)-4-{[4-(trifluoromethyl)phenyl]sulfonyl}piperazine], the IC50 is no less than 31.6 µM.
The same measure for `Cc1cccnc1C(=O)N1CCN(S(=O)(=O)c2ccc(C(F)(F)F)cc2)CC1` [Example 3, 1-[(3-Methyl-2-pyridinyl)carbonyl]-4-{[4-(trifluoromethyl)phenyl]sulfonyl}piperazine]: no less than 31.6 µM; for `O=C(c1cc(-c2ccccn2)ccn1)N1CCN(S(=O)(=O)c2ccc(C(F)(F)F)cc2)CC1` [Example 5, 2′-[(4-{[4-(Trifluoromethyl)phenyl]sulfonyl}-1-piperazinyl)carbonyl]-2,4′-bipyridine]: no less than 31.6 µM; for `Cc1cccnc1C(=O)N1CCN(S(=O)(=O)c2ccc(C(F)(F)F)cc2)C[C@@H]1C` [Example 1, (2S)-2-Methyl-1-[(3-methyl-2-pyridinyl)carbonyl]-4-{[4-(trifluoromethyl)phenyl]sulfonyl}piperazine hydrochloride]: no less than 31.6 µM.
